How the values were obtained:
[1] = biological target: T1, mouse ANO2 (Mus musculus, UniProt Q8CFW1); test: YFP quenching assay in FRT cells expressing mouse ANO2; assay type: cell-based; conditions: FRT cells expressing mouse ANO2 and YFP; read-out: IC50, ATP-induced activation of ANO2
T1 construct: expressed in transfected cells; host or cells: Fisher rat thyroid (FRT) cells, stably transfected, co-expressing halide sensor YFP
T1 sequence (Q8CFW1 1-1002): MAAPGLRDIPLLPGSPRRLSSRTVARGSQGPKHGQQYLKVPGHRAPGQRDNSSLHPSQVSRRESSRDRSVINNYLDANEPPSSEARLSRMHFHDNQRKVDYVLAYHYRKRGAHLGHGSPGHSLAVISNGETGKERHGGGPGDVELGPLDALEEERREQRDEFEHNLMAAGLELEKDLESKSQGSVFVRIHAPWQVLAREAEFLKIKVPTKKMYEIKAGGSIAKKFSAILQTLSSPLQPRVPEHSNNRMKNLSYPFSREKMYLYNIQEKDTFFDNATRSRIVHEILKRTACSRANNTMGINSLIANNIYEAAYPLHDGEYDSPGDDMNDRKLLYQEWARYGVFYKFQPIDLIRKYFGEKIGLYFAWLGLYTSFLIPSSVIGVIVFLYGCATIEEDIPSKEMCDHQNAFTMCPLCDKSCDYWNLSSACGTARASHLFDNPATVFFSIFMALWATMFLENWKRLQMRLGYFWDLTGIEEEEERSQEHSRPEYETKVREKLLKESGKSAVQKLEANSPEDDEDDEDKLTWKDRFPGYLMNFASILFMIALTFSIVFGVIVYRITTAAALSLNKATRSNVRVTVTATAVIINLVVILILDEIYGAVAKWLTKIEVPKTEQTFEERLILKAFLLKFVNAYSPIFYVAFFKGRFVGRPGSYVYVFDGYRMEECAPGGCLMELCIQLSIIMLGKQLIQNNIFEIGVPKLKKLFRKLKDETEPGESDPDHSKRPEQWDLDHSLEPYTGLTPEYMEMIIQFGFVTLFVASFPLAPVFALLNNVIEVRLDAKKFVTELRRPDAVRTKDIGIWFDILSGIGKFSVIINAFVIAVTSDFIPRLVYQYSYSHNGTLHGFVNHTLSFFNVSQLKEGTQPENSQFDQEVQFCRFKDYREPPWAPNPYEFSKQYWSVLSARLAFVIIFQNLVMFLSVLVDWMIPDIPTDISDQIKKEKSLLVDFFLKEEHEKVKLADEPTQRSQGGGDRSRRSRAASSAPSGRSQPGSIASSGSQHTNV
Method: Fisher rat thyroid (FRT) cells were stably transfected with human ANO1 (abc) or mouse ANO2 and the halide sensor YFP as described in previous study. FRT cells were cultured in Coon`s modified F12 medium with 10% FBS, 2 mM L-glutamine, 100 units/ml penicillin and 100 μg/ml streptomycin at 37°C and 5% CO2. PC-3 cells were grown in RPMI 1640 medium supplemented with 10% FBS, 100 units/ml penicillin and 100 μg/ml streptomycin at 37°C and 5% CO2. There were populations of PC-3 cells with high and low expression of ANO1. […]
ANO1 and YFP expressing FRT cells were plated in 96-well black-walled microplates (Corning Inc., Corning, NY) at a density of 20,000 cells per well. Assays were done using FLUOstar Omega microplate reader (BMG Labtech, Ortenberg, Germany) and MARS Data Analysis Software (BMG Labtech) as described in our previous study. […] After 10 minutes incubation at 37°C, 96-well plates were transferred to the plate reader for fluorescence assay. Each well was assayed individually for ANO1-mediated I^- influx by monitoring YFP fluorescence continuously (400 ms per point) for 2 s (baseline), then 140 mM I^- solution containing 200 μM ATP was added at 2 s and then YFP fluorescence was recorded for 6 s. Initial iodide influx rate was determined from the initial slope of fluorescence decrease, by nonlinear regression, following infusion of iodide with ATP.

[2] = tested on: LNCaP; design: method as in PMID 18008333, PMID 23300633; conditions: intraperitoneal 50 mg/kg; LNCaP xenograft mouse; cited from earlier work

O=c1cc(-c2ccc(O)c(O)c2)oc2cc(O)cc(O)c12 [luteolin]
IC50 [1]: ~120 µM | Volume and weight of solid tumors [2]: significantly decreased
